Results: US7834065B2, “Medical-use two part reactive adhesive and medical-use resin having self-degradation property” (BMG Incorporated, priority 2006, dated 2010)

Tested on: mouse established cell line L929
Test: Cytotoxicity test (neutral red uptake, NR50)
Type: cell-based
Settings: L929 cells, 2 days incubation with sample; concentration at which 50% of the cells are killed
Method: The cytotoxicity test was made according to methods described in J. Biomed. Mater. Res. 29, 829-835 (1995) and by use of a mouse established cell line L929. In detail, cell dispersion was prepared to be 10,000 cells/mL; and 0.1 mL of the cell dispersion was sowed in each well of the 96-well culture plate and incubated at 37° C. for 3 days. Subsequently, each of the aqueous solutions mentioned above was diluted to one of various concentrations, and was charged into respective well by 0.1 mL. Then, incubation was further continued for 2 days. Subsequently, 0.1 mL of neural red culture-medium solution as prepared as 150 microgram/mL was added into the each well; and the incubation was made at 37° C. for 3 hours. After the incubation, culture medium was removed; and the cells were fixed by 1 wt % glutaraldehyde aqueous solution and thereafter air-dried. Subsequently, 0.1 mL of water/ethanol solution (equal-volume mixture) having 1 wt % of acetic acid was added; and then neural red molecules that had been taken into the cells were extracted. Light absorbency at 541 nm was measured and NR50 values were obtained from result of this measurement. The NR50 value indicates a concentration at which 50% of the cells are killed. The smaller the NR50 value becomes, the larger becomes the toxicity.

Row | SMILES | NR50 value [µg/mL]
1 | O=CCCCC=O [Glutaraldehyde] | 3.9 ± 0.7
2 | C=O [Formaldehyde] | 1.7 ± 02
